# Results taken from article PMC7382147, “An effective UFLC–MS/MS method used to study pharmacokinetics of major constituents of Fukeqianjin formula in rat plasma” (Chinese Medicine, 2020).
# Assay: Pharmacokinetic study in rat plasma after oral administration of FKQJF extract (UFLC–MS/MS)
# Assay type: in vivo, Sprague-Dawley (SD) rats
# Conditions: Sprague-Dawley, oral FKQJF extract, single dose 3.2 g/kg, mean ± SD
# Description: (§1) Aliquots of 100 μL plasma samples were mixed with 10 μL I.S. samples (1 μg/mL, in MeOH), then added with 500 μL ACN, respectively, and vortexed for 5 min, centrifugated at 10,000 rpm for 10 min, the supernatants were transferred into clean vials and dried in a vacuum centrifugal concentrator at 1200 rpm, 37 °C. After that, 100 μL ACN was added and ultrasonic (frequency 40 kHz, power 250 W) extracted for 5 min to dissolve the dry residue, vortexed for 1 min and centrifugated at 10,000 rpm for 5 min, 1 μL of each final supernatant was injected into UFLC–MS/MS for analysis.
# An 8050 UFLC–MS/MS system equipped with LC-30A binary pump, a SIL-30AC autosampler, a SPD-M30A PDA detector, a CTO-20AC column oven, and a 8050 triple quadrupole mass spectrometer with an electrospray ionization source (ESI) was applied to detect and quantify FKQJF compounds in plasma samples. Data were acquired and processed with the software LabSolution (Ver. 5.6).
# A Kinetex XB-C18 HPLC column (100 × 2.1 mm, 2.6 μm) linked with an equivalent guard column was used for chromatographic separation. The aqueous phase contained 0.2% formic acid was used as mobile phase A, and organic phase ACN as mobile phase B. The gradient elution method using in this program was: 3–5 min, 28–31% B; 5–7 min, 31–34% B; 7–9 min, 34–65% B; 9–10 min, 65–95% B; 10–11.5 min, 95% B. The flow rate of mobile phase, column temperature and autosampler temperature was 0.4 mL/min, 30 °C and 4 °C, respectively. The injection volume of each sample was set as 1 μL. The main MS spectrum parameters were set as follows: the flow rate of drying gas (N2) was 10.0 L/min; the atomized gas was 3.0 L/min and the heating gas flow rate was 10.0 L/min. The main temperatures of interface, desolvation and heat block was 300 °C, 250 °C and 400 °C, respectively. And, the interface and detector voltage were 3 kV and 1.8 kV.
# Rats were divided into a blank group and a FKQJF administration group (6 rats for each), and fasted for 24 h. Each rat of the administration group was given FKQJF extract suspension at a single dose of 3.2 g FKQJF/kg body weight through oral administration in parallel. Blood samples (0.25 mL) were gathered from the orbital venous plexus of each rat, with FKQJF group gathered at 14 serial timepoints (6 rats for each) as 0.083 h, 0.16 h, 0.33 h, 0.5 h, 0.75 h, 1.0 h, 1.5 h, 2 h, 3 h, 4 h, 6 h, 8 h, 12 h and 24 h after drug administration. The blood samples were centrifugated at 6000g for 10 min to isolate plasma and stored at − 20 °C for further analysis.
# Data were analyzed using the Drug and Statistics (DAS) Software version 2.0 (DAS 2.0, Mathematical Pharmacology Professional Committee of China, Shanghai, China). The non-compartmental mode was applied to obtain the following PK parameters: area under the plasma concentration–time curve from time zero to the time of last quantifiable concentration (AUC0→t) and area under the plasma concentration–time curve to time infinity (AUC0→∞), the elimination half-life (t1/2), mean retention time to last sampling time (MRT0→t) and mean retention time to infinity (MRT0→∞). The maximum plasma concentration (Cmax) and the time to maximum concentration (Tmax) were observed directly from the concentration–time (C–T) curves and measured data. All data are presented as mean ± SD.
AUC(0-inf),AUC(0-t),Cmax,half-life,SMILES
505 ± 109 ng·h/mL,344 ± 43.1 ng·h/mL,104 ± 14.9 ng/mL,3.89 ± 0.85 h,"C=C1CC[C@@H]2[C@](C)(CO[C@@H]3O[C@H](CO)[C@@H](O)[C@H](O)[C@H]3O)CCC[C@@]2(C)[C@@H]1CCC1=CCOC1=O [Analyte 5, neoandrographolide]"
1010 ± 558 ng·h/mL,466 ± 51.9 ng·h/mL,79.8 ± 9.43 ng/mL,10.5 ± 6.63 h,"COc1cc(/C=C/C(=O)O)ccc1O [Analyte 6, trans-ferulic acid]"

# Same assay, conditions: Sprague-Dawley, oral FKQJF extract, single dose 3.2 g/kg, mean ± SD, read-out: MRT0→t
row,MRT last,SMILES
1,3.51 ± 0.24 h,"C=C1CC[C@@H]2[C@](C)(CO[C@@H]3O[C@H](CO)[C@@H](O)[C@H](O)[C@H]3O)CCC[C@@]2(C)[C@@H]1CCC1=CCOC1=O [Analyte 5, neoandrographolide]"
2,9.19 ± 1 h,"COc1cc(/C=C/C(=O)O)ccc1O [Analyte 6, trans-ferulic acid]"

# Same assay, conditions: Sprague-Dawley, oral FKQJF extract, single dose 3.2 g/kg, mean ± SD, read-out: MRT0→∞
row,MRT inf,SMILES
1,7.55 ± 1.93 h,"C=C1CC[C@@H]2[C@](C)(CO[C@@H]3O[C@H](CO)[C@@H](O)[C@H](O)[C@H]3O)CCC[C@@]2(C)[C@@H]1CCC1=CCOC1=O [Analyte 5, neoandrographolide]"
2,13.9 ± 9.49 h,"COc1cc(/C=C/C(=O)O)ccc1O [Analyte 6, trans-ferulic acid]"

# Same assay, conditions: Sprague-Dawley, oral FKQJF extract, single dose 3.2 g/kg, mean ± SD, read-out: Tmax
row,Tmax,SMILES
1,1 ± 0.43 h,"C=C1CC[C@@H]2[C@](C)(CO[C@@H]3O[C@H](CO)[C@@H](O)[C@H](O)[C@H]3O)CCC[C@@]2(C)[C@@H]1CCC1=CCOC1=O [Analyte 5, neoandrographolide]"
2,0.08 h,"COc1cc(/C=C/C(=O)O)ccc1O [Analyte 6, trans-ferulic acid]"

# Same assay, conditions: oral FKQJF extract 3.2 g/kg
row,shape of the plasma concentration–time curve,SMILES
1,double-peaks,"C=C1CC[C@@H]2[C@](C)(CO[C@@H]3O[C@H](CO)[C@@H](O)[C@H](O)[C@H]3O)CCC[C@@]2(C)[C@@H]1CCC1=CCOC1=O [Analyte 5, neoandrographolide]"
2,double-peaks,"COc1cc(/C=C/C(=O)O)ccc1O [Analyte 6, trans-ferulic acid]"

# Same assay, conditions: oral FKQJF extract 3.2 g/kg, post dose
time of first peak of the concentration–time curve,time of second peak of the concentration–time curve,SMILES
0 to 1 h,1.5 to 3 h,"C=C1CC[C@@H]2[C@](C)(CO[C@@H]3O[C@H](CO)[C@@H](O)[C@H](O)[C@H]3O)CCC[C@@]2(C)[C@@H]1CCC1=CCOC1=O [Analyte 5, neoandrographolide]"

# Assay: Ordinary stability of QC samples (room temperature for 8 h)
# Assay type: physicochemical, rat
# Conditions: plasma QC, spiked 60 ng/mL, room temperature 8 h
# Description: as §1
# (§2) Six replicates of low, medium and high concentrations of quality control (QC) samples were used to verify the stabilities under different conditions including: place at room temperature for 8 h, freeze (− 20 °C) and thaw for three times, and store at − 20 °C for 20 days.
row,Ordinary stability Mean,SMILES
1,81.32%,"C=C1CC[C@@H]2[C@](C)(CO[C@@H]3O[C@H](CO)[C@@H](O)[C@H](O)[C@H]3O)CCC[C@@]2(C)[C@@H]1CCC1=CCOC1=O [Analyte 5, neoandrographolide]"
2,88.22%,"COc1cc(/C=C/C(=O)O)ccc1O [Analyte 6, trans-ferulic acid]"

# Same assay, conditions: plasma QC, spiked 300 ng/mL, room temperature 8 h
row,Ordinary stability Mean,SMILES
1,103.80%,"C=C1CC[C@@H]2[C@](C)(CO[C@@H]3O[C@H](CO)[C@@H](O)[C@H](O)[C@H]3O)CCC[C@@]2(C)[C@@H]1CCC1=CCOC1=O [Analyte 5, neoandrographolide]"
2,109.93%,"COc1cc(/C=C/C(=O)O)ccc1O [Analyte 6, trans-ferulic acid]"

# Same assay, conditions: plasma QC, spiked 600 ng/mL, room temperature 8 h
row,Ordinary stability Mean,SMILES
1,94.88%,"C=C1CC[C@@H]2[C@](C)(CO[C@@H]3O[C@H](CO)[C@@H](O)[C@H](O)[C@H]3O)CCC[C@@]2(C)[C@@H]1CCC1=CCOC1=O [Analyte 5, neoandrographolide]"
2,91.44%,"COc1cc(/C=C/C(=O)O)ccc1O [Analyte 6, trans-ferulic acid]"

# Assay: Freeze–thaw stability of QC samples (−20 °C, three times)
# Assay type: physicochemical, rat
# Conditions: plasma QC, spiked 60 ng/mL, freeze (−20 °C) and thaw three times
# Description: as §1, §2
row,Freeze–thaw stability Mean,SMILES
1,109.12%,"C=C1CC[C@@H]2[C@](C)(CO[C@@H]3O[C@H](CO)[C@@H](O)[C@H](O)[C@H]3O)CCC[C@@]2(C)[C@@H]1CCC1=CCOC1=O [Analyte 5, neoandrographolide]"
2,115.63%,"COc1cc(/C=C/C(=O)O)ccc1O [Analyte 6, trans-ferulic acid]"

# Same assay, conditions: plasma QC, spiked 300 ng/mL, freeze (−20 °C) and thaw three times
row,Freeze–thaw stability Mean,SMILES
1,80.22%,"C=C1CC[C@@H]2[C@](C)(CO[C@@H]3O[C@H](CO)[C@@H](O)[C@H](O)[C@H]3O)CCC[C@@]2(C)[C@@H]1CCC1=CCOC1=O [Analyte 5, neoandrographolide]"
2,102.20%,"COc1cc(/C=C/C(=O)O)ccc1O [Analyte 6, trans-ferulic acid]"

# Same assay, conditions: plasma QC, spiked 600 ng/mL, freeze (−20 °C) and thaw three times
row,Freeze–thaw stability Mean,SMILES
1,113.31%,"C=C1CC[C@@H]2[C@](C)(CO[C@@H]3O[C@H](CO)[C@@H](O)[C@H](O)[C@H]3O)CCC[C@@]2(C)[C@@H]1CCC1=CCOC1=O [Analyte 5, neoandrographolide]"
2,88.33%,"COc1cc(/C=C/C(=O)O)ccc1O [Analyte 6, trans-ferulic acid]"

# Assay: Long-term stability of QC samples (−20 °C for 20 days)
# Assay type: physicochemical, rat
# Conditions: plasma QC, spiked 60 ng/mL
# Description: as §1, §2
row,Long-term stability Mean,SMILES
1,113.28%,"C=C1CC[C@@H]2[C@](C)(CO[C@@H]3O[C@H](CO)[C@@H](O)[C@H](O)[C@H]3O)CCC[C@@]2(C)[C@@H]1CCC1=CCOC1=O [Analyte 5, neoandrographolide]"
2,83.07%,"COc1cc(/C=C/C(=O)O)ccc1O [Analyte 6, trans-ferulic acid]"

# Same assay, conditions: plasma QC, spiked 300 ng/mL
row,Long-term stability Mean,SMILES
1,97.44%,"C=C1CC[C@@H]2[C@](C)(CO[C@@H]3O[C@H](CO)[C@@H](O)[C@H](O)[C@H]3O)CCC[C@@]2(C)[C@@H]1CCC1=CCOC1=O [Analyte 5, neoandrographolide]"
2,91.27%,"COc1cc(/C=C/C(=O)O)ccc1O [Analyte 6, trans-ferulic acid]"

# Same assay, conditions: plasma QC, spiked 600 ng/mL
row,Long-term stability Mean,SMILES
1,82.61%,"C=C1CC[C@@H]2[C@](C)(CO[C@@H]3O[C@H](CO)[C@@H](O)[C@H](O)[C@H]3O)CCC[C@@]2(C)[C@@H]1CCC1=CCOC1=O [Analyte 5, neoandrographolide]"
2,102.00%,"COc1cc(/C=C/C(=O)O)ccc1O [Analyte 6, trans-ferulic acid]"
